Measured values taken from patent publication US6066628A, “Non-iron metalloporphyrins and methods of use” (Emory University, priority 1998, dated 2000).
Several values for one entry are separate records, joined by “and”; a condition that tells them apart may be missing. Identical values can stand only once. Like-named read-outs stand apart in the source and are kept apart here.

What was measured:
Y. enterocolitica [1] = test: Disc diffusion sensitivity test; format: cell-based; details: disc ~50 μg MP
N. meningitidis = test: Disc diffusion sensitivity test; format: cell-based; details: disc ~50 μg MP
S. marcescens = test: Disc diffusion sensitivity test; format: cell-based, Serratia marcescens
E. coli [2] = test: Disc diffusion sensitivity test; format: cell-based, Escherichia coli
P. mirabills = test: Disc diffusion sensitivity test; format: cell-based, Proteus mirabilis
K. pneumoniae = test: Disc diffusion sensitivity test; format: cell-based, Klebsiella pneumoniae
K. oxytoca = test: Disc diffusion sensitivity test; format: cell-based, Klebsiella oxytoca
Ps. aeruginosa = test: Disc diffusion sensitivity test; format: cell-based, Pseudomonas aeruginosa; details: disc ~50 μg MP; also: key: -: resistant; N: not determined
C. freundii = test: Disc diffusion sensitivity test; format: cell-based, Citrobacter freundii
E. aerogenes = test: Disc diffusion sensitivity test; format: cell-based, Enterobacter aerogenes
F. menigosepticum = test: Disc diffusion sensitivity test; format: cell-based, Flavobacterium meningosepticum
S. aureus [3] = test: Disc diffusion sensitivity test; format: cell-based, Staphylococcus aureus
B. subtilis = test: Disc diffusion sensitivity test; format: cell-based, Bacillus subtilis; details: B. subtilis; disc ~50 μg MP
S. pyogenes A = test: Disc diffusion sensitivity test; format: cell-based, Streptococcus pyogenes; details: disc ~50 μg MP
E. faecalis = test: Disc diffusion sensitivity test; format: cell-based, Enterococcus faecalis; details: disc ~50 μg MP; also: key: -: resistant; N: not determined
M. smegmatis [4] = test: Disc diffusion sensitivity test; format: cell-based, Mycobacterium smegmatis; details: disc ~50 μg MP
M. bovis = format: cell-based, Mycobacterium bovis; details: disc ~50 μg MP
M tuber. H37Rv = test: Disc diffusion sensitivity test; format: cell-based, Mycobacterium tuberculosis; details: disc ~50 μg MP
M tuber. H37Pa = test: Disc diffusion sensitivity test; format: cell-based, Mycobacterium tuberculosis; details: disc ~50 μg MP
S. crevisieae = test: Disc diffusion sensitivity test; format: cell-based, Saccharomyces cerevisiae; details: S. cerevisiae; disc ~50 μg MP
Staphylococcus carnosus = test: Disc diffusion sensitivity test; format: cell-based; details: 50 μg disc
Staphylococcus xylolus = test: Disc diffusion sensitivity test; format: cell-based; details: 50 μg disc
Y. enterocolitica [5] = test: microbe, parasite or virus in culture; format: cell-based
S. aureus [6] = format: cell-based, Staphylococcus aureus
M. smegmatis [7] = format: cell-based, Mycobacterium smegmatis; details: for antibacterial activity: M. smegmatis
Y. pseudotuberculosis = format: cell-based
Neisseria meningitidis = test: Minimal inhibitory concentration; format: cell-based
Bacillus subtilis = test: Minimal inhibitory concentration; format: cell-based
[8] = test system: Streptococcus pyogenes JRS4; format: cell-based
[9] = test system: Mycobacterium bovis (BCG); format: cell-based
E. coli [10] = format: cell-based, Escherichia coli; details: E. coli DH-5 alpha hemA (Table 6)
E. coli EB53 (hemPR^+) = test: Growth inhibition on Nutrient Broth Dipyridyl plates; details: NBD 0.1 mM plates
[11] = test system: mammalian cells in culture; test: Cytotoxicity in eukaryotic cell cultures; format: cell-based; details: human cells in culture
patients = patients with compromised kidney function, high dosages; cited from earlier work

C=CC1=C(C)c2cc3[n-]c(cc4[n-]c(cc5nc(cc1n2)C(C)=C5C=C)c(C)c4CCC(=O)[O-])c(CCC(=O)[O-])c3C.[H+].[H+].[Mn+2] [Mn-PPIX, Manganese protoporphyrin IX]
diameter (mm) of the inhibition zone (Y. enterocolitica [1]): 30 mm
diameter (mm) of the inhibition zone (N. meningitidis): 18 mm
diameter (mm) of the inhibition zone (S. marcescens; S. marcescens, disc ~50 μg MP): -
sensitive strains / strains tested (inhibition zones larger or equal 20 mm) (S. marcescens; Serratia marcescens, 50 μg disc): 2/3
diameter (mm) of the inhibition zone (E. coli [2]; E. coli, disc ~50 μg MP): -
sensitive strains / strains tested (inhibition zones larger or equal 20 mm) (E. coli [2]; Escherichia coli, 50 μg disc): 16/18
diameter (mm) of the inhibition zone (P. mirabills; P. mirabilis, disc ~50 μg MP): 22 mm
sensitive strains / strains tested (inhibition zones larger or equal 20 mm) (P. mirabills; Proteus mirabilis, 50 μg disc): 2/2
diameter (mm) of the inhibition zone (K. pneumoniae; K. pneumoniae, disc ~50 μg MP): -
sensitive strains / strains tested (inhibition zones larger or equal 20 mm) (K. pneumoniae; Klebsiella pneumoniae, 50 μg disc): 9/13
diameter (mm) of the inhibition zone (K. oxytoca; K. oxytoca, disc ~50 μg MP): -
sensitive strains / strains tested (inhibition zones larger or equal 20 mm) (K. oxytoca; Klebsiella oxytoca, 50 μg disc): 1/1
diameter (mm) of the inhibition zone (Ps. aeruginosa): -
diameter (mm) of the inhibition zone (C. freundii; C. freundii, disc ~50 μg MP): 22 mm
sensitive strains / strains tested (inhibition zones larger or equal 20 mm) (C. freundii; Citrobacter freundii, 50 μg disc): 4/4
diameter (mm) of the inhibition zone (E. aerogenes; E. aerogenes, disc ~50 μg MP): -
sensitive strains / strains tested (inhibition zones larger or equal 20 mm) (E. aerogenes; Enterobacter aerogenes, 50 μg disc): 1/1
diameter (mm) of the inhibition zone (F. menigosepticum; F. meningosepticum, disc ~50 μg MP): 17 mm
sensitive strains / strains tested (inhibition zones larger or equal 20 mm) (F. menigosepticum; Flavobacterium meningosepticum, 50 μg disc): 1/1
diameter (mm) of the inhibition zone (S. aureus [3]; S. aureus, disc ~50 μg MP): 23 mm
sensitive strains / strains tested (inhibition zones larger or equal 20 mm) (S. aureus [3]; Staphylococcus aureus, 50 μg disc): 9/9
diameter (mm) of the inhibition zone (B. subtilis): 25 mm
diameter (mm) of the inhibition zone (S. pyogenes A): -
diameter (mm) of the inhibition zone (E. faecalis): -
diameter (mm) of the inhibition zone (M. smegmatis [4]): 25 mm
diameter (mm) of the inhibition zone (M. bovis): 35 mm
diameter (mm) of the inhibition zone (M tuber. H37Rv): -
diameter (mm) of the inhibition zone (M tuber. H37Pa): -
diameter (mm) of the inhibition zone (S. crevisieae): -
sensitive strains / strains tested (inhibition zones larger or equal 20 mm) (Staphylococcus carnosus): 1/1
sensitive strains / strains tested (inhibition zones larger or equal 20 mm) (Staphylococcus xylolus): 1/1
Minimal inhibitory concentration (MIC) (Y. enterocolitica [5]): 0.4
antibacterial activity (Y. enterocolitica [5]): inhibitory
MIC (S. aureus [6]; S. aureus 8325-4 (Table 4)): 1 µg/mL
MIC (S. aureus [6]; S. aureus 8325-4 (Table 6), in µg/mL): 3
MIC (S. aureus [6]; S. aureus 8325-4, 20 to 24 hours (Table 5)): 3 µg/mL
Minimal inhibitory concentration (MIC) (S. aureus [6]; methicillin-resistant S. aureus IR219, Nutrient broth (Table 2)): 3.2 µg/mL
antibacterial activity (M. smegmatis [7]): inhibitory
MIC (M. smegmatis [7]; M. smegmatis LR222 (Table 4)): 0.5 µg/mL
Minimal inhibitory concentration (MIC) (M. smegmatis [7]; M. smegmatis LR222, LB + Tween 80 (Table 2)): 0.8 µg/mL
MIC (Y. pseudotuberculosis; Y. pseudotuberculosis YP66 (Table 4)): < 0.1 µg/mL
MIC (Y. pseudotuberculosis; Y. pseudotuberculosis YP66 (Table 6), in µg/mL): 1-2
MIC (Y. pseudotuberculosis; Y. pseudotuberculosis, iron restricted NBD 0.1 mM, 20 to 24 hours (Table 5)): 1 to 2 µg/mL
MIC (Neisseria meningitidis; N. meningitidis IR1072, 20 to 24 hours (Table 5)): 2 µg/mL
MIC (Neisseria meningitidis; Neisseria meningitidis (Table 4)): 2 µg/mL
MIC (Bacillus subtilis; B. subtilis 3G18, 20 to 24 hours (Table 5)): 1 µg/mL
MIC (Bacillus subtilis; Bacillus subtilis (Table 4)): 1 µg/mL
sensitivity ([8]; S. pyogenes): resistant
MIC ([8]; S. pyogenes JRS4 (Table 4)): > 4 µg/mL
MIC ([8]; S. pyogenes JRS4, 20 to 24 hours (Table 5)): > 4 µg/mL
MIC ([9]; M. bovis (BCG) (Table 4)): 0.8 µg/mL
MIC ([9]; M. bovis (BCG), two weeks (Table 5)): 0.8 µg/mL
MIC (E. coli [10]): > 10 µg/mL
inhibition of growth (E. coli EB53 (hemPR^+)): inhibited growth

C=Cc1c(C)c2[n]3c1C=C1N=C(C=c4c(C)c(C(=O)O)c([n]4[Ga]3[Cl])=C(CC(=O)O)C3=NC(=C2)C(C)C3CCC(=O)O)C(CC)=C1C (centres unmarked) [GA-Ce6, Ga-chlorin e6]
antibacterial activity (Y. enterocolitica [5]): significantly less active
MIC (Y. enterocolitica [5]; in µg/mL): 5 and 10
antibacterial activity (S. aureus [6]; S. aureus): active
MIC (S. aureus [6]; S. aureus IR2419, dark (Table 10)): 3.2 µg/mL
antibacterial activity (M. smegmatis [7]): active
MIC (M. smegmatis [7]; M. smegmatis LR222, dark (Table 10)): 0.4 µg/mL
cytotoxicity [11]: cytotoxic to human cells in culture

O=[N+]([O-])[O-].O=[N+]([O-])[O-].O=[N+]([O-])[O-].[Ga+3] [gallium nitrate, Gallium nitrate]
major complication of treatment (patients): Reversible nephrotoxicity
